In patent US20240360146A1, “BRUTON'S TYROSINE KINASE AND MUTANT DEGRADER, COMPOSITION AND APPLICATION THEREOF” (HANGZHOU HEALZEN THERAPEUTICS CO., LTD., priority 2021, published 2024):

target: T1, BTK (Homo sapiens, UniProt Q06187); test: BTK degradation activity test in Mino cells; type: cell-based; conditions: 16 h incubation, Western blot or Elisa
T1 construct: endogenous in cells; host or cells: Mino cells
Method in brief: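 Mino cells treated with a concentration series of compound for 16 h, then lysed; total protein by BCA. BTK quantified by Western blot or ELISA, degradation rate calculated against blank control, and DC50 fitted from the degradation curve.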

T1 sequence (Q06187 whole entry): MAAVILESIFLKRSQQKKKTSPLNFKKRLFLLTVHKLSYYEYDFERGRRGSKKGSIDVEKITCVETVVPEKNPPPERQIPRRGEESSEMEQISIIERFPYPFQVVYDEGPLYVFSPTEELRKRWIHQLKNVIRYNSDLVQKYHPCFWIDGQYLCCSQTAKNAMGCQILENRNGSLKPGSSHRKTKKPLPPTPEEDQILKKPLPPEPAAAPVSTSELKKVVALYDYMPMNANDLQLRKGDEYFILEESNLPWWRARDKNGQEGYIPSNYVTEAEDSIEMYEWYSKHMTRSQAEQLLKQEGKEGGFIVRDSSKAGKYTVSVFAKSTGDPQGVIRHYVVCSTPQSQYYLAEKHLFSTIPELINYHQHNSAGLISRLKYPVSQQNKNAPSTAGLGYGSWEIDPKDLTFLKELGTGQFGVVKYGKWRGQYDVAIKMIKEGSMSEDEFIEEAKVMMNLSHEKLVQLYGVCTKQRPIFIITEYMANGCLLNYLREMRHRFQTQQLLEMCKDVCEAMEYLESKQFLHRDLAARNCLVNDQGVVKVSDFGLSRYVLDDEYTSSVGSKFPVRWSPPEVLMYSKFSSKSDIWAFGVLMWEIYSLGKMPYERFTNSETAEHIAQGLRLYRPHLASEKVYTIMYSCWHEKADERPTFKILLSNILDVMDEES

| SMILES | DC50 [nM] |
| --- | --- |
| CN1CCN(C2CC3CC2N(c2nnc(C(N)=O)c(Nc4ccc(C5CCN(CC6CCN(c7ccc8c(c7)C(=O)N(C7CCC(=O)NC7=O)C8=O)CC6)CC5)cc4)n2)C3)C1=O (centres unmarked) [Compound 071, 5-((4-(1-((1-(2-(2,6-dioxopiperidin-3-yl)-1,3-dioxoisoindol-5-yl)piperidin-4-yl)methyl)piperidin-4-yl)phenyl)amino)-3-(6-(3-methyl-2-oxoimidazolin-1-yl)-2-azabicyclo[2.2.1]heptan-2-yl)-1,2,4-triazin-6-carboxamide] | > 1 |
| NC(=O)c1ncc(N2CCCC(N3CCN(C4CCCC4)C3=O)C2)nc1Nc1ccc(C2CCN(C3CN(c4ccc5c(c4)C(=O)N(C4CCC(=O)NC4=O)C5=O)C3)CC2)cc1 (centres unmarked) [Compound 027, 5-(3-(3-cyclopentyl-2-oxyimidazolin-1-yl)piperidin-1-yl)-3-((4-(1-(1-(2-(2,6-dioxopiperidin-3-yl)-1,3-dioxoisoindol-5-yl)azetidin-3-yl)piperidin-4-yl)phenyl)amino) pyrazin-2-carboxamide] | > 1 |
| CC1(c2ccc(Nc3nc(N4CCCC(N5CCN(c6ccccc6)C5=O)C4)nnc3C(N)=O)cc2)CCN(C2CCN(c3ccc4c(c3)C(=O)N(C3CCC(=O)NC3=O)C4=O)CC2)CC1 (centres unmarked) [Compound 091, 5-((4-(1′-(2-(2,6-dioxopiperidin-3-yl)-1,3-dioxoisoindol-5-yl)-4-methyl-[1,4′-bipiperidin]-4-yl)phenyl)amino)-3-(3-(2-oxo-3-phenylimidazolin-1-yl)piperidin-1-yl)-1,2,4-triazin-6-carboxamide] | > 1 |
| NC(=O)c1nnc(N2CCCC(N3CCN(c4ccccc4)C3=O)C2)nc1Nc1ccc2c(c1)CCN(C1CN(c3ccc4c(c3)C(=O)N(C3CCC(=O)NC3=O)C4=O)C1)C2 (centres unmarked) [Compound 093] | > 1 |
| CC(C)N1CCN(C2CC3CC2N(c2cnc(C(N)=O)c(Nc4ccc(C5CCN(C6CN(c7ccc8c(c7)C(=O)N(C7CCC(=O)NC7=O)C8=O)C6)CC5)cc4)n2)C3)C1=O (centres unmarked) [Compound 047, 3-((4-(1-(1-(2-(2,6-dioxopiperidin-3-yl)-1,3-dioxoisoindolin-5-yl)azetidin-3-yl)piperidin-4-yl)phenyl)amino)-5-(-6-(3-isopropyl-2-oxoimidazolin-1-yl)-2-azabicyclo[2.2.1]heptan-2-yl)pyrazin-2-carboxamide] | < 1 |
| NC(=O)c1nnc(N2CCCC(N3CCN(c4ccccc4)C3=O)C2)nc1Nc1ccc(C2CCN(CC3CCN(c4ccc5c(c4)CN(C4CCC(=O)NC4=O)C5=O)CC3)CC2)cc1 (centres unmarked) [Compound 100, 5-((4-(1-((1-(2-(2,6-dioxopiperidin-3-yl)-1-oxoisoindol-5-yl)piperidin-4-yl)methyl)piperidin-4-yl)phenyl)amino)-3-(3-(2-oxo-3-phenylimidazolin-1-yl)piperidin-1-yl)-1,2,4-triazin-6-carboxamide] | < 1 |
| NC(=O)c1nnc(N2CCCC(N3CC4CCCN4C3=O)C2)nc1Nc1ccc(C2CCN(CC3CCN(c4ccc5c(c4)C(=O)N(C4CCC(=O)NC4=O)C5=O)CC3)CC2)cc1 (centres unmarked) [Compound 070, 5-((4-(1-((1-(2-(2,6-dioxopiperidin-3-yl)-1,3-dioxoisoindol-5-yl)piperidin-4-yl)methyl)piperidin-4-yl)phenyl)amino)-3-(3-(3-oxytrihydro-1H-pyrrolo[1,2-c]imidazol-2(3H)-yl)piperidin-1-yl)-1,2,4-triazin-6-carboxamide] | < 1 |
| CN1CCN([C@@H]2CCCN(c3nnc(C(N)=O)c(Nc4ccc(C5CCN(C[C@@H]6CCN(c7cc8c(cc7F)C(=O)N(C7CCC(=O)NC7=O)C8=O)C6)CC5)cc4)n3)C2)C1=O (stereo partly drawn) [Compound 155, 5-((4-(1-(((3S)-1-(2-(2,6-dioxopiperidin-3-yl)-6-fluoro-1,3-dioxoisoindolin-5-yl)pyrrolidin-3-yl)methyl)piperidin-4-yl)phenyl)amino)-3-((R)-3-(3-methyl-2-oxoimidazolin-1-yl)piperidin-1-yl)-1,2,4-triazin-6-carboxamide] | < 1 |
| CN1CCN(C2CCCN(c3nnc(C(N)=O)c(Nc4ccc(C5CCN(C6CN(c7ccc8c(c7)C(=O)N(C7CCC(=O)NC7=O)C8=O)C6)CC5)cc4)n3)C2)C1=O (centres unmarked) [Compound 077, 5-((4-(1-(1-(2-(2,6-dioxopiperidin-3-yl)-1,3-dioxoisoindol-5-yl)azetidin-3-yl)piperidin-4-yl)phenyl)amino)-3-(3-(3-methyl-2-oxoimidazolin-1-yl)piperidin-1-yl)-1,2,4-triazin-6-carboxamide] | < 1 |
| NC(=O)c1nnc(N2CCCC(N3CCN(c4cccc(F)c4)C3=O)C2)nc1Nc1ccc(C2CCN(CC3CCN(c4ccc5c(c4)C(=O)N(C4CCC(=O)NC4=O)C5=O)CC3)CC2)cc1 (centres unmarked) [Compound 066, 5-((4-(1-((1-(2-(2,6-dioxopiperidin-3-yl)-1,3-dioxoisoindol-5-yl)piperidin-4-yl)methyl)piperidin-4-yl)phenyl)amino)-3-(3-(3-(3-fluorophenyl)-2-oxoimidazolin-1-yl)piperidin-1-yl)-1,2,4-triazin-6-carboxamide] | < 1 |
| Cn1c(=O)n(C2CCC(=O)NC2=O)c2ccc(N3CCC(CN4CCC(c5ccc(Nc6nc(N7CCCC(N8CCN(c9ccccc9)C8=O)C7)nnc6C(N)=O)cc5)CC4)CC3)cc21 (centres unmarked) [Compound 101] | < 1 |
| CC1(c2ccc(Nc3nc(N4CCCC(N5CCN(C6CCCC6)C5=O)C4)cnc3C(N)=O)cc2)CCN(C2CN(c3ccc4c(c3)C(=O)N(C3CCC(=O)NC3=O)C4=O)C2)CC1 (centres unmarked) [Compound 001, 5-(3-(3-cyclopentyl-2-oxoimidazolin-1-yl)piperidin-1-yl)-3-((4-(1-(1-(2-(2,6-dioxopiperidin-3-yl)-1,3-dioxoisoindol-5-yl)azetidin-3-yl)-4-methylpiperidin-4-yl)phenyl)amino)pyrazin-2-carboxamide] | < 1 |
| NC(=O)c1nnc(N2CCCC(N3CCN(C4CC4)C3=O)C2)nc1Nc1ccc(C2CCN(CC3CCN(c4ccc5c(c4)C(=O)N(C4CCC(=O)NC4=O)C5=O)CC3)CC2)cc1 (centres unmarked) [Compound 058, 3-(3-(3-cyclopropyl-2-oxoimidazolin-1-yl)piperidin-1-yl)-5-((4-(1-((1-(2-(2,6-dioxopiperidin-3-yl)-1,3-dioxoisoindol-5-yl)piperidin-4-yl)methyl)piperidin-4-yl)phenyl)amino)-1,2,4-triazin-6-carboxamide] | < 1 |

More lines, now with the values ahead:

| DC50 [nM] | SMILES |
| --- | --- |
| < 1 | CN1CCN([C@@H]2CCCN(c3nnc(C(N)=O)c(Nc4ccc(N5CCN(CC6CCN(c7ccc(N8CCC(=O)NC8=O)cc7S(C)(=O)=O)CC6)CC5)c(F)c4)n3)C2)C1=O [Compound 197, (R)-5-((4-(4-((1-(4-(2,4-dioxotetrahydropyrimidin-1(2H)-yl)-2-(methylsulfonyl)phenyl)piperidin-4-yl)methyl)piperazin-1-yl)-3-fluorophenyl)amino)-3-(3-(3-methyl-2-oxoimidazolidin-1-yl)piperidin-1-yl)-1,2,4-triazin-6-carboxamide] |
| < 1 | CN1CCN([C@@H]2CCCN(c3nnc(C(N)=O)c(Nc4ccc(N5CCN(C[C@@H]6CCN(c7ccc8c(c7)C(=O)N(C7CCC(=O)NC7=O)C8=O)C6)CC5)c(Cl)c4)n3)C2)C1=O (stereo partly drawn) [Compound 159, 5-((3-chloro-4-(4-(((3S)-1-(2-(2,6-dioxopiperidin-3-yl)-1,3-dioxoisoindolin-5-yl)pyrrolidin-3-yl)methyl)piperazin-1-yl)phenyl)amino)-3-((R)-3-(3-methyl-2-oxoimidazolidin-1-yl)piperidin-1-yl)-1,2,4-triazin-6-carboxamide] |
| < 1 | CN1CCN([C@@H]2CCCN(c3nnc(C(N)=O)c(Nc4ccc(N5CCN(CC6CCN(c7ccc8c(c7)C(=O)N(C7CCC(=O)NC7=O)C8=O)CC6)CC5)c(Cl)c4)n3)C2)C1=O (stereo partly drawn) [Compound 164, 5-((3-chloro-4-(4-((1-(2-(2,6-dioxopiperidin-3-yl)-1,3-dioxoisoindolin-5-yl)piperidin-4-yl)methyl)piperazin-1-yl)phenyl)amino)-3-((R)-3-(3-methyl-2-oxoimidazolidin-1-yl)piperidin-1-yl)-1,2,4-triazin-6-carboxamide] |
| < 1 | CN1CCN([C@@H]2CCCN(c3nnc(C(N)=O)c(Nc4ccc(N5CCN(CC6CCN(c7cccc8c(C9CCC(=O)NC9=O)nn(C)c78)CC6)CC5)c(F)c4)n3)C2)C1=O (stereo partly drawn) [Compound 217, 5-((4-(4-((1-(3-(2,6-dioxopiperidin-3-yl)-1-methyl-H-indazol-7-yl)piperidin-4-yl)methyl)piperazin-1-yl)-3-fluorophenyl)amino)-3-((R)-3-(3-methyl-2-oxoimidazolidin-1-yl)piperidin-1-yl)-1,2,4-triazin-6-carboxamide] |
| < 1 | CN1CCN([C@@H]2CCCN(c3nnc(C(N)=O)c(Nc4ccc(N5CCN(CC6CCN(c7ccnc8c(C(=O)NC9CCC(=O)NC9=O)cccc78)CC6)CC5)c(F)c4)n3)C2)C1=O (stereo partly drawn) [Compound 250, 4-(4-((4-(4-((6-carbamoyl-3-((R)-3-(3-methyl-2-oxoimidazolidin-1-yl)piperidin-1-yl)-1,2,4-triazin-5-yl)amino)-2-fluorophenyl)piperazin-1-yl)methyl)piperidin-1-yl)-N-(2,6-dioxopiperidin-3-yl)quinolin-8-carboxamide] |
| < 1 | CN1CCN([C@@H]2CCCN(c3nnc(C(N)=O)c(Nc4ccc(N5CCN(CC6CCN(c7ccc(C(=O)NC8CCC(=O)NC8=O)c8c7OCO8)C6)CC5)c(F)c4)n3)C2)C1=O (stereo partly drawn) [Compound 176, 5-((4-(4-((1-(7-((2,6-dioxopiperidin-3-yl)carbamoyl)benzo[d][1,3]dioxacyclopent-4-yl)pyrrolidin-3-yl)methyl)piperazin-1-yl)-3-fluorophenyl)amino)-3-((R)-3-(3-methyl-2-oxoimidazolidin-1-yl)piperidin-1-yl)-1,2,4-triazin-6-carboxamide] |
| < 1 | CN1CCN([C@@H]2CCCN(c3nnc(C(N)=O)c(Nc4ccc(C5CCN(C[C@@H]6CCN(c7ccc8c(c7)C(=O)N(C7CCC(=O)NC7=O)C8=O)C6)CC5)c(F)c4)n3)C2)C1=O (stereo partly drawn) [Compound 157, 5-((4-(1-(((3S)-1-(2-(2,6-dioxopiperidin-3-yl)-1,3-dioxoisoindolin-5-yl)pyrrolidin-3-yl)methyl)piperidin-4-yl)-3-fluorophenyl)amino)-3-((R)-3-(3-methyl-2-oxoimidazolin-1-yl)piperidin-1-yl)-1,2,4-triazin-6-carboxamide] |
